Consider 5 compounds from US10777299B2, “Systems and methods for matching oncology signatures” (THE TRUSTEES OF COLUMBIA UNIVERSITY IN THE CITY OF NEW YORK, priority 2015, dated 2020).

In data set [1] the test system is patient-0 metastasis checkpoint MRs. Briefly: OncoTreat: VIPER-inferred MR reversal after compound perturbation of H-STS cells, patient-0 MRs. The format is cell-based, human. As to conditions: H-STS cell perturbation, FIG. 10A. The procedure: (§1) To assess the ability of these compounds to induce Tumor Checkpoint collapse (i.e., global inversion of patient-derived MR activity pattern), gene expression profiles were generated at 6 h and 24 h following perturbation of H-STS cells with two sub-lethal compound concentrations, the 72 h IC20 and 1/10th of that concentration in duplicate. The 24 h time point was considered more informative for long term response. These were produced by 30M SE read Illumina TruSeq profiling of RNA purified from treated cells as well as from cells treated with control media (DMSO). This ensured that the highest compound concentration can be tested that would not induce cell death processes and would thus faithfully recapitulate the compound mechanism of action (MoA) rather than the mechanisms and programs associated with cell demise. While in vivo endpoint phenotypes (e.g., tumor viability) are not effectively recapitulated in 2D cultures in vitro, compound MoA is reasonably well-recapitulated in both contexts. One aim can be to identify compounds capable of inverting MR activity signature in vitro in a relatively faithful model of the tumor regulatory context, to assess whether these compounds would have activity in vivo.
(§2) Drug signatures were analyzed with VIPER to assess the change in protein activity before and after the perturbation. Specifically, RX-GES were generated by differential expression of compound-treated vs. control-vehicle-treated cells at all time points and concentrations and analyzed with VIPER against the EP-NET interactome. This ranked all 5,602 regulatory proteins represented in the interactome from the one whose activity was most inhibited to the one whose activity was most increased following drug perturbation. An aREA analysis of patient samples that were well represented by the H-STS xenograft model was performed to assess enrichment of metastatic progression MRs in proteins whose activity was most inverted following drug perturbation. Since validation of these predictions was performed in H-STS mouse xenograft models, the analysis was limited to each NET-MET MRs that were recapitulated in the H-STS xenograft. […] Rather they allow optimal tuning of the results to available in vitro and in vivo models for optimal design of validation assays. Thus, the OncoTreat methodology uses the ability to prioritize small molecule compounds that optimally reverse a patient-specific MR activity signature.
FIG. 15 depicts the enrichment of the top 50 most activated (shown in red in the enrichment plots) and the top 50 most deactivated (shown in blue) proteins in patient 0 on the protein activity signature induced by each compound perturbation in the H-STS cell line. […] The colored bar indicates the tissue of origin for each of the evaluated tumors. […]

The test system of data set [2] is H-STS xenograft checkpoint MRs. Briefly: OncoTreat: VIPER-inferred MR reversal after compound perturbation of H-STS cells, xenograft MRs. The data set is classed as cell-based, human. To be noted: H-STS cell perturbation. The procedure:
as §1, §2
FIG. 15 depicts the enrichment of the top 50 most activated (shown in red in the enrichment plots) and the top 50 most deactivated (shown in blue) proteins in patient 0 on the protein activity signature induced by each compound perturbation in the H-STS cell line. […] The colored bar indicates the tissue of origin for each of the evaluated tumors.
For orientation: A xenograft is tissue or cells of one species grown in another, often human tumour cells in immunodeficient mice.

For data set [3], the system named is rectal neuroendocrine tumor metastasis (NET-MET) tumor checkpoint. Briefly: Drug-induced VIPER-inferred protein activity signatures in H-STS cells versus NET-MET checkpoint. The format is cell-based, human. As to conditions: H-STS cell line. The text has this: Drug MoA information was inferred using a NET liver metastasis-derived cell line (H-STS), which recapitulated the tumor checkpoint inferred from patient's samples (FIG. 6A).
Drug-induced VIPER-inferred protein activity signatures were obtained for a few drugs including entinostat. […] Drug MoA information was inferred using a NET liver metastasis-derived cell line (H-STS), which recapitulated the tumor checkpoint inferred from patient's samples, as shown in FIG. 6A.

In data set [4] the test system is H-STS xenograft. Briefly: H-STS xenograft tumor growth, Champions Oncology (TGI, RECIST, TR). The data set is classed as in vivo, mice. To be noted: for % TGI: H-STS xenograft in NOD-SCIDS mice, treated 25 days; for effect on H-STS xenograft tumor growth (FIG. 4B): H-STS xenograft models; for RECIST PD/SD/PR/CR: number of mice per response class; for % TR (tumor regression): H-STS xenograft. Here is the method:
All test agents were formulated according to manufacturer's specifications. Beginning Day 0, tumor dimensions were measured twice weekly by digital caliper and data, including individual and mean estimated tumor volumes (Mean TV±SEM), were recorded for each group. Tumor volume was calculated using the formula: […].
At study completion, percent tumor growth inhibition (% TGI) values were calculated and reported for each treatment group (T) versus control (C) using initial (i) and final (f) tumor measurements by the formula: % TGI=[1−(Tf−Ti)/(Cf−Ci)]×100. Individual mice reporting a tumor volume >120% of the Day 0 measurement were considered to have progressive disease (PD). Individual mice with neither sufficient shrinkage nor sufficient tumor volume increases are considered to have stable disease (SD). Individual mice reporting a tumor volume ≤70% of the Day 0 measurement for two consecutive measurements over a seven day period were considered partial responders (PR). If the PR persisted until study completion, percent tumor regression (% TR) was determined using the formula: % TR=(1−Tf/Ti)×100; a mean value was calculated for the entire treatment group. Individual mice lacking palpable tumors for two consecutive measurements over a seven day period were classified as complete responders (CR). All data collected in this study were managed electronically and stored on a redundant server system.
(§3) In vivo validation in NOD-SCIDS mice xenografts established by subcutaneous injection of H-STS cells was first conducted at Champions Oncology and then independently confirmed in the mouse hospital facility at Columbia University. Mice were enrolled in treatment arms when tumor size reached 250 mm^3 and were treated for 25 days. Tumor size was measured twice weekly by digital caliper, see methods.

For data set [5], the system named is H-STS xenograft. Briefly: H-STS xenograft tumor growth, follow-up studies at Columbia. To be noted: mean of 8 animals. The data set is classed as in vivo, mice. Here is the method: as §3
This is in line with the poor effect of Bardoxolone methyl, I-BET151 and Bortezomib on xenograft tumor growth, and the strong abrogation elicited by Entinostat (FIGS. 10B and 10C). In summary, while the effect of the Entinostat, I-BET151 and Bardoxolone methyl on the reversal of patient-0 checkpoint activity inferred from the in vitro H-STS perturbation assay was confirmed in the xenograft model, only Entinostat reverted the activity of the H-STS xenograft checkpoints and abrogated tumor growth (FIG. 10).
FIG. 10A depicts enrichment of patient-0 metastasis checkpoint MRs on the protein activity signatures induced by 6 selected compounds in the H-STS cells. FIGS. 10B and 10C depict growth curves for the H-STS xenograft while treated by vehicle control, and each of the 6 selected compounds. Curves show tumor volume for individual animals (FIG. 10B) or the mean±SEM of 8 animals (FIG. 10C). FIG. 10D depicts enrichment of patient-0 metastasis checkpoint on the protein activity signatures induced by 4 selected compounds in the H-STS xenograft. FIG. 10E depicts enrichment of H-STS xenograft checkpoint on the protein activity signatures induced by 4 selected compounds in the H-STS xenograft.

Data set [6] relates to patient-0 checkpoint protein activity. Put plainly: Xenograft transcriptome analysis after drug administration, patient-0 checkpoint. The format is in vivo, mice. To be noted: xenograft transcriptome 3 hours after 3rd drug administration.
Data set [7] relates to H-STS xenograft checkpoint. Put plainly: Xenograft transcriptome analysis after drug administration, H-STS xenograft checkpoint. The format is in vivo, mice. As to conditions: xenograft transcriptome 3 hours after 3rd drug administration.

Consider `O=C(/C=C/c1cccc(S(=O)(=O)Nc2ccccc2)c1)NO` [Belinostat], for which the “reversal of patient-0 MRs (in words)” value in data set [1] is recorded as “no significant reversal”. In data set [2], the “reversal of xenograft MRs (in words)” value was “no significant reversal”. In addition, in data set [3], the “reverting the NET-MET tumor checkpoint (FIG. 4A)” value is “not affecting NET-MET checkpoint”. For the same compound, the “% TGI” value in data set [4] (20 mg (text: 20 mg/kg/dose)) is listed as 8%; in data set [4] (20 mg (text: 20 mg/kg/dose), listed as PDX101), 8%; in data set [4] (40 mg) it was −55%. Moreover, the “effect on H-STS xenograft tumor growth (FIG. 4B)” value in data set [4] is “did not abrogate tumor growth”. Besides, the “RECIST PD/SD/PR/CR” value in data set [4] (20 mg) and in data set [4] (40 mg) was 3/0/0/0 throughout.

With `CC(C)C[C@H](NC(=O)[C@H](Cc1ccccc1)NC(=O)c1cnccn1)B(O)O` [Bortezomib], the “xenograft tumor growth versus vehicle control (FIG. 10C)” value in data set [5] is given as “no significant difference”. In addition, in data set [6], the “inhibition of patient-0 checkpoint protein activity in xenograft (FIG. 10D)” value (“inhibition … (FIG. 10D)” below) is given as “no effect”.

As to `Nc1ccccc1NC(=O)c1ccc(CNC(=O)OCc2cccnc2)cc1` [Entinostat], the “reversal of patient-0 MRs (in words)” value in data set [1] was “significantly abrogating”; in data set [1] (listed as entinostat), “most significant reversal”. In addition, the “reversal of xenograft MRs (in words)” value is “significantly abrogating” in data set [2] and “most significant reversal” in data set [2] (listed as entinostat). In addition, the “reverting the NET-MET tumor checkpoint (FIG. 4A)” value in data set [3] is “most potent agent”. In data set [4] (100 mg (text: 100 mg/kg/dose), one week into the test), the “drug toxicity / animal deaths” value was “toxic”. Moreover, the “% TGI” value in data set [4] (25 mg (text: 25 mg/kg/dose)) was found to be 112%; in data set [4] (25 mg (text: 25 mg/kg/dose), listed as MS-27-275) it was 112%; in data set [4] (50 mg (50 mg/kg/dose)), 110%; in data set [4] (50 mg (50 mg/kg/dose), listed as MS-27-275) it was 110%. For the same compound, the “effect on H-STS xenograft tumor growth (FIG. 4B)” value in data set [4] was “abrogated completely tumor growth”. Further, the “% TR (tumor regression)” value in data set [4] (25 mg (text: 25 mg/kg/dose)) amounted to 68%; in data set [4] (50 mg (50 mg/kg/dose)), 58%; in data set [4] (100 mg (text: 100 mg/kg/dose), single surviving animal), 49%. In addition, the “RECIST PD/SD/PR/CR” value is given as 0/0/3/0 in data set [4] (25 mg), 0/0/3/0 in data set [4] (50 mg) and 0/0/1/0 in data set [4] (100 mg). In addition, in data set [5], the “xenograft tumor growth versus vehicle control (FIG. 10C)” value was “complete tumor growth abrogation”. For the same compound, in data set [6], the “inhibition … (FIG. 10D)” value was “strong inhibition”. Further, the “inhibition of the H-STS xenograft checkpoint in xenograft (FIG. 10E)” value in data set [7] was “significant inhibition”.

Consider `COc1cc2c(cc1-c1c(C)noc1C)ncc1[nH]c(=O)n([C@H](C)c3ccccn3)c12` [I-BET151], for which, in data set [1], the “reversal of patient-0 MRs (in words)” value was “significantly abrogating”. Also, the “reversal of xenograft MRs (in words)” value in data set [2] is reported as “significantly abrogating”. Besides, the “xenograft tumor growth versus vehicle control (FIG. 10C)” value in data set [5] was “no significant difference”. In addition, the “inhibition … (FIG. 10D)” value in data set [6] was “strong inhibition”.

`O=C1NC(=O)[C@@H](c2cn3c4c(cccc24)CCC3)[C@@H]1c1c[nH]c2ccccc12` [Tivantinib]: the “% TGI” value in data set [4] (50 mg (50 mg/kg/dose)) is given as −46%; in data set [4] (100 mg (text: 100 mg/kg/dose)), 28%; in data set [4] (100 mg (text: 100 mg/kg/dose), listed as ARQ197), 28%; in data set [4] (200 mg (text: 200 mg/kg/dose)), 43%; in data set [4] (200 mg (text: 200 mg/kg/dose), listed as ARQ197), 43%.
